Experimental data published in ChEMBL document CHEMBL1201862, “PubChem BioAssay data set” (2004).
The source made the active and inactive calls.

Assays:
[1] = target: Large T antigen (Simian virus 40, UniProt P03070); format: functional, Betapolyomavirus macacae;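 also: Confirmatory-stage PubChem screen for compounds that inhibit SV40 T antigen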
[2] = target: Cytochrome P450 3A4 (Homo sapiens, UniProt P08684); details: Potency;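 also: confirmatory qHTS run detecting inhibitors and substrates of CYP3A4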
[3] = target: Nonstructural protein 1 (Influenza A virus, UniProt Q194T2); format: functional, Influenza A virus (A/California/07/2009(H1N1))
[4] = target: T1, RNA-binding protein pos-1 (Caenorhabditis elegans, UniProt G5EF15); test: inhibitors of POS-1/mex-3 RNA binding, dose response, biochemical, fluorescence polarization (AID 1964);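 also: purified POS-1 fused to maltose binding protein made in E. coli; potency of compounds blocking POS-1 binding to fluorescent RNA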
T1 sequence (G5EF15 whole entry): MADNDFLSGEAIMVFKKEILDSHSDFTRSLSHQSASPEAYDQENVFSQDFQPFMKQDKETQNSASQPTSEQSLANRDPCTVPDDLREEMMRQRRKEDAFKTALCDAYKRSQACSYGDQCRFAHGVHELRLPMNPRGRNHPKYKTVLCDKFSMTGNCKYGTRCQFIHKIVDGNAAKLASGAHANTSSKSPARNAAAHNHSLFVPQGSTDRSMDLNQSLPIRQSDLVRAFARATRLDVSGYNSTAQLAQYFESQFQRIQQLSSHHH

[5] = target: T2, Zinc finger protein mex-5 (Caenorhabditis elegans, UniProt Q9XUB2); test: MEX-5/TCR-2 RNA interaction inhibitors, dose response, biochemical, C. elegans, fluorescence polarization (AID 1960)
T2 sequence (Q9XUB2 whole entry): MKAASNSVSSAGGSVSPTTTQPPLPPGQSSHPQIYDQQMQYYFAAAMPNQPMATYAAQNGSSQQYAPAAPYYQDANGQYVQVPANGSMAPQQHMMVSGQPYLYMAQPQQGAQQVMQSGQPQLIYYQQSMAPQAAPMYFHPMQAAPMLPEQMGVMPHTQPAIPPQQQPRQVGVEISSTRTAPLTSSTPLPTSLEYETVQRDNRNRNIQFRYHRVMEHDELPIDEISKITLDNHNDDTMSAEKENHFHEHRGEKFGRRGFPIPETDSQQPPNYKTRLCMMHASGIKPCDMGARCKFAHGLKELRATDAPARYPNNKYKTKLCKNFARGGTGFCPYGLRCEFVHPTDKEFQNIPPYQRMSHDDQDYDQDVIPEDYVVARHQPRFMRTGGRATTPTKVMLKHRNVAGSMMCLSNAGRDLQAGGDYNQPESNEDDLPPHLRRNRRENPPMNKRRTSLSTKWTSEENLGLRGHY

[6] = cytotoxicity toward DRD oncogenic fibroblasts, dose response, cell-based, non-viral oncogenic, luminescence (AID 1934); format: functional; details: Homo sapiens
[7] = system: BJ; test: cytotoxicity toward BJ-TERT-LT-ST fibroblasts, dose response, cell-based, RAS-independent, luminescence (AID 1935); format: functional; details: Homo sapiens;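 also: BJ fibroblasts immortalized with TERT plus LT and ST oncogenes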
[8] = system: BJ; test: cells; format: functional, cell-based; details: Homo sapiens
[9] = cytotoxicity in HEK-293T cells, dose response, cytotoxicity control for TCR NF-kB inhibitor project, luminescence, T-cell screen hits (AID 489026); format: functional, cell-based;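 also: cells exposed to compound about 14 hours before the viability readout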
[10] = system: BJ; test: cytotoxicity toward BJ-TERT fibroblasts, dose response, cell-based, RAS-independent, luminescence (AID 1933); format: functional; details: Homo sapiens
[11] = target: Cytochrome P450 2C9 (Homo sapiens, UniProt P11712)
[12] = target: Cytochrome P450 2C19 (Homo sapiens, UniProt P33261); test: Cytochrome panel assay with activity outcomes. Panel member name: p450-cyp2c19 Compounds with AC50 equal or less than 10 uM are considered active; format: functional; details: read-out: AC50
[13] = target: T3, High affinity choline transporter 1 (Homo sapiens, UniProt Q9GZV3); test: CHT inhibitors, dose response, cell-based, 5-point CRC, membrane potential dye (AID 504840); format: functional
T3 sequence (Q9GZV3 whole entry): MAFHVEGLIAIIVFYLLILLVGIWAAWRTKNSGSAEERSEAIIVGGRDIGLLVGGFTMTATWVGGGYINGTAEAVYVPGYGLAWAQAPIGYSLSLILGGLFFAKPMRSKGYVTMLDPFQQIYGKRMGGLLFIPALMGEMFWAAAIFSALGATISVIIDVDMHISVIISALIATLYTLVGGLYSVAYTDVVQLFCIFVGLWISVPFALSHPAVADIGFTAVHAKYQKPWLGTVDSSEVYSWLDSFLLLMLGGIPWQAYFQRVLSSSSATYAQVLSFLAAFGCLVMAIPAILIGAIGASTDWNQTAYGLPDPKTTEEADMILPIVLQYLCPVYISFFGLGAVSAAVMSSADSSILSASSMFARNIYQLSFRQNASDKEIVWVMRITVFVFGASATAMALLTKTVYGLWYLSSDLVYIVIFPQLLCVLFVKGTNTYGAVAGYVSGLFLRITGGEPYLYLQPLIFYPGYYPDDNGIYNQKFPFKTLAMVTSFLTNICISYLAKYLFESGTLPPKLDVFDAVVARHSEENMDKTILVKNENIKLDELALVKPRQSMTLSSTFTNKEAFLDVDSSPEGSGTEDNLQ

[14] = target: T4, Polyadenylate-binding protein 1 (Homo sapiens, UniProt P11940); test: PABP1 MLLE–PAM2 binding inhibitor potency, dose response, biochemical, fluorescence polarization, FITC-PAM2 peptide (AID 602259); format: functional; details: read-out: IC50_Mean
[15] = NIH-3T3 fibroblast cytotoxicity, dose response, cytotoxicity control, cell-based, fluorescence, Alamar Blue, secondary assay (AID 2327); format: functional;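 also: NIH-3T3 mouse fibroblasts cultured with fluconazole at 8 µg/mL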
[16] = target: T5, Heat shock factor protein 1 (Mus musculus, UniProt P38532); test: HSF1 potentiators in luciferase reporter cells, confirmation, cell-based, NIH3T3, luminescence, dose retest (AID 435004); format: functional;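 also: stress induced by proteasome inhibitor MG132 added 30 min after compound; luciferase reporter driven by HSF1 response element in NIH3T3 cells; actives raise luminescence as potentiators of the MG132 stress response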
T5 sequence (P38532 whole entry): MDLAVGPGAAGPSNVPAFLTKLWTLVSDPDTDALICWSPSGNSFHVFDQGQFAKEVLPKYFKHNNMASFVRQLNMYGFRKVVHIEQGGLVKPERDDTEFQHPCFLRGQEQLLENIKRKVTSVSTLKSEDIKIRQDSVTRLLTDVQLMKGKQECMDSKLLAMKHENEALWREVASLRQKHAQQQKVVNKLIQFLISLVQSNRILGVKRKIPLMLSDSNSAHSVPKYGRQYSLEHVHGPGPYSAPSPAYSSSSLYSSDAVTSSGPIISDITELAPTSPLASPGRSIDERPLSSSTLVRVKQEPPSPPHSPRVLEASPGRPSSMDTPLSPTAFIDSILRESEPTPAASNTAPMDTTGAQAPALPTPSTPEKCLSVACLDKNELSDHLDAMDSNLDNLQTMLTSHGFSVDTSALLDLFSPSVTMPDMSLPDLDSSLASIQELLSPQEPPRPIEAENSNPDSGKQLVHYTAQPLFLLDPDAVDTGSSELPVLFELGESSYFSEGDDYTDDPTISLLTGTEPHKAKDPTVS

[17] = C. albicans growth with fluconazole, confirmation, fluorescence, retest (AID 2467); format: functional, cell-based
[18] = target: T4, Polyadenylate-binding protein 1; test: PABP1 MLLE–PAM2 interaction inhibitors, dose response, miRNA deadenylation inhibitor project, biochemical, fluorescence polarization, Cy5-PAM2 peptide, secondary (AID 602260); format: functional; details: read-out: IC50_Mean
[19] = control 3'UTR Renilla luciferase suppression, dose response, counter-screen for Shn3 inhibitor project, cell-based, Clone20-Shn3RL, cherry-picked (AID 624133); format: functional
[20] = Shn3 3'UTR reporter inhibitors, dose response, cell-based, Clone20 osteoblasts, firefly luciferase, cherry-picked (AID 624132); format: functional;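 also: firefly luciferase luminescence from reporter carrying the Shn3 3'UTR in osteoblasts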
[21] = HepG2 cell cytotoxicity, dose response, cytotoxicity control for Shn3 inhibitor project, CellTiter-Glo, cherry-picked (AID 624134); format: functional, cell-based
[22] = target: T6, Microphthalmia-associated transcription factor (Homo sapiens, UniProt O75030); test: TRPM1 promoter luciferase signal decrease, dose response, MITF inhibitor project, cell-based, SK-MEL-5, cherry-picked, set 3 (AID 493073); format: functional
T6 sequence (O75030 whole entry): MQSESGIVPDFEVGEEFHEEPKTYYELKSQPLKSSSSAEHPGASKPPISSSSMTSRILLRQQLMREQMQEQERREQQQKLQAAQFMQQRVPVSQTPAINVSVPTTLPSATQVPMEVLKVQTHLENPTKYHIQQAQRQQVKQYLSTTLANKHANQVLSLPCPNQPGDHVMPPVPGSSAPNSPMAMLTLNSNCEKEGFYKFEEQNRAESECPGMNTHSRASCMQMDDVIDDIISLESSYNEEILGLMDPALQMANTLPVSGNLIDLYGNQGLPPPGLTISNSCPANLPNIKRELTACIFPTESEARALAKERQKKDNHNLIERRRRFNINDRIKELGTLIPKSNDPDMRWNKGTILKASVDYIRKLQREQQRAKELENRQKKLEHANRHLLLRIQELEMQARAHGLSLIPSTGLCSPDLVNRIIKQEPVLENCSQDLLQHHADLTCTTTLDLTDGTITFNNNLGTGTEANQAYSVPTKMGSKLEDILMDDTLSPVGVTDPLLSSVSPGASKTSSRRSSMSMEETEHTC

[23] = cytotoxicity toward NIH3T3 fibroblasts, dose response, counter-screen, cell-based, ATP luminescence, mouse fibroblasts (AID 2010); format: functional;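 also: cells exposed to compound for about 90 hours before reading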
[24] = inhibitors of intracellular T. cruzi replication, confirmation, NIH3T3 host cells, beta-gal luminescence (AID 2044); format: functional, cell-based;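 also: intracellular parasites grown in NIH/3T3 mouse fibroblasts as host cells; luminescent beta-galactosidase reporter signal from transgenic T. cruzi replicating inside host cells; inhibitors lower the luminescence signal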
[25] = target: Heat shock protein HSP 90-alpha (Homo sapiens, UniProt P07900); format: functional, organism-based
[26] = HepG2 cell cytotoxicity, dose response, cytotoxicity control, cherry-picked samples (AID 1159577); format: functional, cell-based
[27] = P. falciparum Dd2 growth inhibitors, dose response, SYBR Green, cherry-picked samples (AID 1159567); format: functional, cell-based

Chain of Cytochrome P450 3A4 (P08684 whole entry): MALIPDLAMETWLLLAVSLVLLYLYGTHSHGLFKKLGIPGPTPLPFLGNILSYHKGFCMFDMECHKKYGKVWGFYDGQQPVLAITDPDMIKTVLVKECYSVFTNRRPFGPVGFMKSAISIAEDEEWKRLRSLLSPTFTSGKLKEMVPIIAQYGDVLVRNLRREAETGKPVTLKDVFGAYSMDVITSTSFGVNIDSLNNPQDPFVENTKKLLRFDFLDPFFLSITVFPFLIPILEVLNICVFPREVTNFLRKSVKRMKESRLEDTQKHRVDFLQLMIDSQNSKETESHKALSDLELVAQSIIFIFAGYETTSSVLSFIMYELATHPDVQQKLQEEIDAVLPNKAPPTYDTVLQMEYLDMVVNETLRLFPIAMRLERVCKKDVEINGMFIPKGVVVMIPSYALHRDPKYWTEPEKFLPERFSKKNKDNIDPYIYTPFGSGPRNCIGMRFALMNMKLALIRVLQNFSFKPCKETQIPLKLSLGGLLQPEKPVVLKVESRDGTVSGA
Chain of Nonstructural protein 1 (Q194T2 whole entry, the tested form may be a part): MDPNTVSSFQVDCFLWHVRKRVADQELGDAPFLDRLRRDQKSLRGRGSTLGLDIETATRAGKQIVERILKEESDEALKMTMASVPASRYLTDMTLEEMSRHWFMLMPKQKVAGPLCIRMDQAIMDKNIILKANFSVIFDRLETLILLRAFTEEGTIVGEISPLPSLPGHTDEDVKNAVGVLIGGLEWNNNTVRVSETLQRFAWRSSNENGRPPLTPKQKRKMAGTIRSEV
Chain of Large T antigen (P03070 whole entry): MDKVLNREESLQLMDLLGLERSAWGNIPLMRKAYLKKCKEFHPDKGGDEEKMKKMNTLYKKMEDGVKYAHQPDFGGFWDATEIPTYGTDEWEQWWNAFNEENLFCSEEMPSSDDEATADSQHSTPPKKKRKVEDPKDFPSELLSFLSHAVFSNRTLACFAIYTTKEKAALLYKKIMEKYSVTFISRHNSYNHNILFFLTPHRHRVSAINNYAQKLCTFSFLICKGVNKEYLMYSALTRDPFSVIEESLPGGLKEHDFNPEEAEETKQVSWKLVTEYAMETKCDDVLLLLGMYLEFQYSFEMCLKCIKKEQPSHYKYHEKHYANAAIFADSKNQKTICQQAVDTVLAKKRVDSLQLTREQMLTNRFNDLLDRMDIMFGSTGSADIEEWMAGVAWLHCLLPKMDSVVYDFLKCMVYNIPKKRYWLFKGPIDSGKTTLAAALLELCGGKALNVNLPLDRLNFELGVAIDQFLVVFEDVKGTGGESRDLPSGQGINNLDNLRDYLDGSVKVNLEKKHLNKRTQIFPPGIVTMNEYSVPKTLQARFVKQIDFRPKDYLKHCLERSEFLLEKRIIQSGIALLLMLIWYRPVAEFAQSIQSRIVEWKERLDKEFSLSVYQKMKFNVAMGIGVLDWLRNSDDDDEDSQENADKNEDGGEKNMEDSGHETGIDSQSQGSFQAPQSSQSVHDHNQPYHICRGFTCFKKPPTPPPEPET
T4 sequence (P11940 whole entry): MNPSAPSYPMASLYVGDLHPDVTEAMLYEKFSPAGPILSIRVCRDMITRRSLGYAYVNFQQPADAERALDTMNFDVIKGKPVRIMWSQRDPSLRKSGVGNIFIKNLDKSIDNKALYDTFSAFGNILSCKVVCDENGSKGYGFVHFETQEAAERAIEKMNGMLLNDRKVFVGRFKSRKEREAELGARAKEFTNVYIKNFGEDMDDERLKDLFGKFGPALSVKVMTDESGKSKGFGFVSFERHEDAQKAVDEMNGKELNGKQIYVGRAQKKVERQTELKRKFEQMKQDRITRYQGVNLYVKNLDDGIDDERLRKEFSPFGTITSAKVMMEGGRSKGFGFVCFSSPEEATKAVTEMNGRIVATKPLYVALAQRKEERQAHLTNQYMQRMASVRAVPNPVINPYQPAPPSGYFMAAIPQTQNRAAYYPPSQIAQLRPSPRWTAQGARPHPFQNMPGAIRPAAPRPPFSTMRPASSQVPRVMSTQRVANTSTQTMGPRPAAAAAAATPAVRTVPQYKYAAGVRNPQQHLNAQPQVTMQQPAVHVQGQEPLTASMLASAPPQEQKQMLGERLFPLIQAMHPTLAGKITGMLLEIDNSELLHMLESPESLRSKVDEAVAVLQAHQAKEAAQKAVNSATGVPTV
Chain of Cytochrome P450 2C19 (P33261 whole entry): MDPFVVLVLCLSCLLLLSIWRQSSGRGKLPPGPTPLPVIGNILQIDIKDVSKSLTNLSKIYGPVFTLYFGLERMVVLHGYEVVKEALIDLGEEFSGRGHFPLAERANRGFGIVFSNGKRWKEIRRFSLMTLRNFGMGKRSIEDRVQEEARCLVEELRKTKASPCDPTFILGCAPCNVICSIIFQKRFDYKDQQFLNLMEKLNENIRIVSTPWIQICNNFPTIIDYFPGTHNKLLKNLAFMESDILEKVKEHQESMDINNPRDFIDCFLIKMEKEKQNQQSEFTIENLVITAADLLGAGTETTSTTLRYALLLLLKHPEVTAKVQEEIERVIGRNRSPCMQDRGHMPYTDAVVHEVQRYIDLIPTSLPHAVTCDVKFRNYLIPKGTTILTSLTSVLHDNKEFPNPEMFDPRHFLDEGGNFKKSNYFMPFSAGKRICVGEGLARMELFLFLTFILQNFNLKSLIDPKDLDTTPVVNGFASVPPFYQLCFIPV
Chain of Cytochrome P450 2C9 (P11712 whole entry): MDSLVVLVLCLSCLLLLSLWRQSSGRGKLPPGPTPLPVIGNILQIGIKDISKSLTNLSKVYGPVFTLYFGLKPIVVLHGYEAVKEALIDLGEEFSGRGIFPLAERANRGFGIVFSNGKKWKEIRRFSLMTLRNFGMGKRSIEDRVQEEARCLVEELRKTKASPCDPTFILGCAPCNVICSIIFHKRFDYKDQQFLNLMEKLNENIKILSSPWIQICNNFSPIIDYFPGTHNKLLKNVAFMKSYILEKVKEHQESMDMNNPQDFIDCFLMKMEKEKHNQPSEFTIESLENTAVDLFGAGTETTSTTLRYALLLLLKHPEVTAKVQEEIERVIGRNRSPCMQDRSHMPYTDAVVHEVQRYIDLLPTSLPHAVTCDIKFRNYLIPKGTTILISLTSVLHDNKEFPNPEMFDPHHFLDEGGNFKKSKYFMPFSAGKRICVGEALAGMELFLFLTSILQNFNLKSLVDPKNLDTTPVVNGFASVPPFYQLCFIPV

Cc1nnc(NN/C=C2\C(=O)N(c3cccc(C(F)(F)F)c3)C(=O)c3ccccc32)nc1O
IC50 [1]: 15.2 µM (active)

C=CCOC(=O)C(C(C)=O)C(NC(=O)OC)c1ccc2ccccc2c1 (stereo not given)
AC50 [2]: 1 µM (inconclusive)

COc1ccc(Nc2ccc([N+](=O)[O-])c3nonc23)c(OC)c1
IC50 [3]: > 100 µM (active)

Cn1c(N)c(C(=O)COC(=O)c2ccnc3ccccc23)c(=O)n(C)c1=O
AC50 [2]: 15.8 µM (inconclusive)

NC(=O)c1snnc1-c1ccccc1
EC50 [4]: > 300 µM (not active)
EC50 [5]: > 300 µM (not active)

COc1ccccc1NC(=O)Cn1nnc(C(=O)NCc2cccs2)c1N
EC50 [6]: 1.18 µM (active)
EC50 [7]: 1.41 µM (active)
EC50 [8]: 19.3 µM (active)
IC50 [9]: > 80 µM (inactive)
EC50 [10]: 1.96 µM (active)

COc1ccc(/C=C2/C(=O)OCc3cc(OC)c(OC)cc32)cc1
IC50 [9]: 78.5 µM (inactive)

CCC(=S)/C=C1\Sc2ccc3ccccc3c2N1CCCS(=O)(=O)O
AC50 [11]: 20 µM (inconclusive)
EC50 [4]: > 300 µM (not active)
EC50 [5]: > 300 µM (not active)
AC50 [12]: 28.2 µM (inconclusive)

CCCc1ccc(OCc2ccc(C(=O)NCc3cccnc3)o2)c(OC)c1
IC50 [13]: 5.01 µM (active)

Cc1cc(Sc2ncnc(N)c2[N+](=O)[O-])ncn1
IC50 [14]: > 66 µM (inactive)
EC50 [15]: 2.67 µM (inconclusive)
EC50 [16]: 12.2 µM (active)
EC50 [17]: 0.58 µM (active)
IC50 [18]: > 66 µM (inactive)
AC50 [19]: 7.76 µM (active)
AC50 [20]: 5.7 µM (active)
AC50 [21]: 30.1 µM (active)
AC50 [22]: 7.61 µM (active)

O=C(Nc1nc(-c2ccccc2)cs1)c1ccc(N2CCOCC2)c([N+](=O)[O-])c1
AC50 [19]: 3.52 µM (active)
AC50 [20]: 3.75 µM (active)
EC50 [23]: > 60 µM (inconclusive)
AC50 [21]: 1.59 µM (active)
EC50 [24]: 0.895 µM (active)
IC50 [9]: 10.2 µM (active)

O=C(c1ccc(C[S+]([O-])c2ccccc2Cl)o1)N1CCN(c2ccccn2)CC1 (stereo not given)
IC50 [9]: > 80 µM (inactive)

O=C(COC(=O)CCc1c[nH]c(=O)[nH]1)Nc1ccccc1Cl
EC50 [4]: > 300 µM (not active)
EC50 [5]: 53.5 µM (active)

Nc1cccc(N)c1
AC50 [2]: 31.6 µM (inconclusive)

Cc1cc(Cl)ccc1OCCCC(=O)N1CCN(C(=O)c2ccco2)CC1
IC50 [13]: 2 µM (active)

CC(C)c1c(O)ccc2c1CCC1[C@@](C)(CO)CCC[C@@]21C (stereo not given in full)
AC50 [2]: 39.8 µM (inconclusive)

O=C(C[n+]1ccccc1)NN=Cc1cc(Br)cc(Br)c1O
IC50 [3]: 3.68 µM (active)

O=C(OCC(=O)C12CC3CC(CC(C3)C1)C2)c1ccc(O)cc1
AC50 [25]: 1.04 µM (active)

Cc1ccc(NC(=O)CNC(=O)c2cccc(Cl)c2)nc1
IC50 [13]: 13.1 µM (active)

CC(C)c1ccc(/C=C(\NC(=O)c2ccccc2)C(=O)NCCCn2ccnc2)cc1
IC50 [13]: 15.8 µM (active)

CCCCCCC(Cl)(Cn1ccnc1)c1ccccc1 (stereo not given)
AC50 [25]: 8.5 µM (active)

Oc1ccc(/C=N/N2CCN(c3ccccn3)CC2)cc1
IC50 [1]: 42.5 µM (active)

Oc1c(Cl)cc(Cl)cc1/C=N/c1ccc(Br)cc1
IC50 [13]: 13.2 µM (active)

Cc1nn(-c2ccccc2)c(N2CCCC2)c1/C=N/NC(=O)c1cc(-c2cccnc2)nc2ccccc12
EC50 [4]: > 300 µM (not active)
EC50 [23]: 32.8 µM (active)
EC50 [24]: 0.306 µM (active)
EC50 [5]: > 300 µM (not active)

CCS(=O)(=O)N1[C@H](CO)[C@H](c2ccc(C#CCC3CCCC3)cc2)[C@@H]1C#N
AC50 [26]: 62.4 µM (active)
AC50 [27]: 5.64 µM (active)

CN(C)C(=O)c1ccc(-c2ccc3c(c2)[C@@H]2[C@@H](CCN2C(=O)C2CCCC2)[C@H](CO)N3C)cc1
AC50 [26]: > 39 µM (inactive)
AC50 [27]: 6.47 µM (active)

COc1ccc2c3c(n(C)c2c1)[C@H](CO)N(C(=O)Nc1ccccc1F)CC31CN(C)C1
AC50 [26]: 18.5 µM (active)
AC50 [27]: 6.4 µM (active)

CC(C)CC#Cc1ccc2c(c1)O[C@@H](CN(C)Cc1cccc(F)c1)[C@H](C)CN([C@H](C)CO)S2(=O)=O
AC50 [26]: 17.1 µM (active)
AC50 [27]: 4.19 µM (active)

CC(C)NC[C@@H]1[C@@H](c2ccc(C3=CCCCC3)cc2)[C@@H](CO)N1C(=O)CC1CC1
AC50 [26]: 36 µM (active)
AC50 [27]: 6.18 µM (active)

C=CCSSSCC=C [ALLITRIDIN]
AC50 [2]: 39.8 µM (inconclusive)
